Legend:
[1] = tested on: keratin 1 and keratin 10 in outer skin of hairless mice; experiment: Induction of keratinocyte differentiation in hairless mouse skin after topical application (keratin 1/keratin 10 immunostaining); assay type: in vivo
Protocol: Hairless mice (SPF/VAF Crl:SKH 1-hr) used in the present tests were purchased from OrientBio (Seongnam, Korea). NAADP, an experiment material of the present invention, used was a product of Sigma-Aldrich Corporation.
Test materials were prepared by dissolving NAADP for each concentration in a solution, in which 1% dimethyl sulfoxide (DMSO) was added to a phosphate buffer solution, and tests were performed by using a method of applying the test materials on right and left portions of the back of a 6-week-old mouse with cotton swabs. The test materials were applied 5 times for each concentration and the applications were performed twice a day at 9:00 a.m. and 7:00 p.m. Animals having the test materials applied for one week were sacrificed by cervical dislocation, and the skin was dissected to prepare a size of 1 cm×1 cm and was then fixed in a 10% formalin solution over a night. A paraffin block was prepared from the fixed tissues to prepare 5 micrometer slices and the slices were dyed with an antibody (Santa Cruz #SC53251) simultaneously identifying keratin 1 and keratin 10 at a dilution ratio of 1:100. Anti-mouse IgG (invitrogen) combined with Alexa 488 was used as a secondary antibody.
A solution, in which 1% DMSO was added to a phosphate buffer solution, was used as a control group and solutions prepared by diluting the solution used as the control group with NAADP in various concentrations were used as a test group.

[2] = tested on: Epidermal keratinocyte neonatal (NHEK-Np); experiment: Increase in intracellular calcium in cultured keratinocytes (fluo-3 AM, confocal microscopy); assay type: cell-based, human
Protocol: In the present example, an efficacy in inducing an increase in intracellular calcium was evaluated when cultured keratinocytes were treated with NAADP in order to confirm an effect of recovering a skin barrier in the composition of the present invention.
Epidermal keratinocyte neonatal (NHEK-Np, CC-2507, Lonza Co. Ltd.) was treated with fluo-3 AM (Molecular Probe, USA), an intracellular calcium marker, for 30 minutes in a CO2 incubator and then washed with a KBM (Keratinocyte Basal Media, KBM-2, Lonza Co. Ltd.) medium three times. Measurement of intracellular calcium was performed in the KBM medium and an increase in intracellular calcium due to NAADP was observed. For the measurement of intracellular calcium, a concentration of calcium was calculated through the collection of images at 530 nm by using a confocal microscopy (Nikon, Japan) equipped with a laser source having an excitation wavelength of 488 nm and an emission wavelength of 530 nm Amounts of changes in calcium measured when epidermal keratinocyte neonatal (5×10^5 cells) was treated with 0.1 nM, 1 nM, 10 nM, 100 nM, 1000 nM of NAADP are illustrated in FIG. 1, respectively.

[3] = tested on: involucrin, keratin 1, and keratin 10 in primarily cultured epidermal keratinocyte neonatal; experiment: Expression of keratinocyte differentiation markers by western blotting; assay type: cell-based, human
Protocol: An effect of NAADP on promoting cell differentiation was tested by measuring the expression of differentiation markers (involucrin, keratin 1, and keratin 10) generated during the differentiation of the keratinocytes by using a western blotting method.
Primarily cultured epidermal keratinocyte neonatal was put into a culture flask and attached to the bottom thereof, and then cultured for 5 days until the cells grew to cover about 70% to 80% of an area of the bottom by adding NAADP diluted for each concentration and retinol acid as a control group into a culture medium. The cells were harvested and cleaned with phosphate buffered saline (PBS). Next, precipitates obtained by adding 1 ml of a 10 mM tris-HCl (pH 7.4) buffer solution containing 2% sodium dodecyl sulfate (SDS) and 20 mM dithiothreitol (DTT) and being subjected to sonication, boiling, and centrifugation were again suspended in 1 ml of PBS. A content of protein in the suspension was measured and used as a criterion during the evaluation of a degree of cell differentiation. The results of tests performed by using a group treating the epidermal keratinocyte neonatal (5×10^5 cells) with retinol acid (1 μM) as a positive control group and adding each NAADP having different concentration (10 pM to 10 μM) to a low calcium concentration are presented in the following FIG. 2.

[4] = in vitro, NAADP having a high concentration

nicotinic acid adenine dinucleotide phosphate [NAADP]
concentration dependence of keratin 1 and keratin 10 increase in vivo ([1]; hairless mouse): increased by depending on the concentration of NAADP
concentration at which an increase in the expression level of the differentiation marker appeared ([1]; twice a day for one week): ≥ 100 nM
expression levels of keratin 1 and keratin 10 in outer skin versus control group ([1]; twice a day for one week, in PBS with 1% DMSO, FIG. 3): increased
intracellular calcium at high concentration of NAADP [2, 4]: increased
movement of intracellular calcium ([2]; treatment with 1 nM to 100 nM of NAADP, 5×10^5 cells, FIG. 1): induced
expression of differentiation markers (involucrin, keratin 1, keratin 10) ([3]; 10 pM to 10 μM of NAADP, low calcium concentration, cultured 5 days, FIG. 2): differentiation markers were expressed
effect on keratin 1 and keratin 10 relative to the other marker ([3]; 10 pM to 10 μM of NAADP, FIG. 2): better effects
expression of the markers at high concentration of NAADP [3, 4]: decreased

— patent US8816065B2, “Pharmaceutical or cosmetic composition containing nicotinic acid adenine dinucleotide phosphate or derivative thereof” (Damy Chemical Co., Ltd., priority 2010, dated 2014)
